Test results published in patent US6677326B2 (Arakis, Ltd., priority 1999, dated 2004).

Assays:
[1] = Proposed equivalent dose in chronotherapeutic administration; settings: proposed clinical dose
[2] = BNF 37 March 1999; non-chronotherapeutic; cited from earlier work
[3] = system: patients with rheumatoid arthritis; test: Assessor-blind study of prednisolone 1 mg and 5 mg given at 02.00: clinical outcomes; assay type: in vivo; settings: for More or Less (arthritis worse: -1 morning, 0 equal, +1 afternoon) / Pain (VAS) / Painful Joints (tender joint count, n=28) / Swollen Joints (swollen joint count, n=28) / Cln Opn (clinician opinion of condition, VAS) / EMS (morning stiffness) / Pt Opn (patient opinion of condition, VAS): mean; for Pain (VAS) / Painful Joints (tender joint count, n=28) / Swollen Joints (swollen joint count, n=28): 08.30; for Cln Opn (clinician opinion of condition, VAS) / EMS (morning stiffness) / Pt Opn (patient opinion of condition, VAS): 12.00
Description: Patients stayed the night in hospital but were free to be up and about and to leave the hospital during the day. […] Blood samples and clinical assessments were made at 08.30 and further clinical assessments related to symptoms on the day of drug administration at 12.00 and 08.30 the following day (except the final day when this last assessment was made before departure from the hospital). […] Patients went home on Friday afternoon but returned the following Monday to repeat the procedure. […] The patient and assessor were not aware of which dose was given.
Clinical: Outcome was measured at 08.30 each day for: swollen joint count (n=28); tender joint count (n=28); pain (0.100 mm, VAS). Outcome was measured at 12.00 each day for: morning stiffness (minutes); patient opinion of condition (0-100 mm, VAS); clinician opinion of condition (0-100 mm, VAS). Outcome was measured the following day for: whether the arthritis was worse in the morning or afternoon on the previous day (−1 morning, 0 equal, +1 afternoon).
The assessor was not aware of the treatment order allocation (and probably remained blind), but no placebo tablets were used and it was possible for a patient to be un-blind.
Informed consent was obtained and the patient prescription written by a doctor not associated with trial evaluation. Medication was dispensed at 2 a.m. on each treatment day after gently waking the patient. The patient was encouraged to settle back to sleep immediately.
On the morning before medication and on each morning on the day of medication, blood samples were taken at 8.30 a.m. and outcome assessments recorded then, and at noon, as indicated above.
Symptoms, signs and laboratory results were compared within and between patients, but the main assessment was visual inspection of the overall pattern of response. Means and standard deviations were used to define variation rates and for calculating trial size for future studies. An overall assessment of practicality and the potential for more frequent (but smaller volume) blood taking was made by discussion amongst the staff and patients involved.
This patient's assessments have been included normally in the first week, but in the second week they have been used differently.

[4] = system: C-reactive protein (CRP); test: Same study: serum C-reactive protein at 08.30; assay type: in vivo, patients
Description: (§1) Serological: Serum samples were obtained at 08.30, kept on ice for up to 1 hour, separated and stored at −70° C. to measure: C-reactive protein (CRP); IL-6 concentration; IL-6 soluble receptor (IL-6sR) concentration; hyaluronate (HA) concentration.

[5] = system: IL-6; test: Same study: serum IL-6 concentration at 08.30; assay type: in vivo, patients
Description: as §1

[6] = system: hyaluronate (HA); test: Same study: serum hyaluronate concentration at 08.30; assay type: in vivo, patients; design: unit not given beside the values; settings: mean, serum 08.30
[7] = human, in vivo, 1.25 mg
[8] = system: rheumatoid arthritis; settings: daily dosage of 7.5 mg; Kirwan 1995; cited from earlier work
[9] = BNF 37 March 1999; cited from earlier work
[10] = 1 mg prednisolone, three patients
[11] = Dose 1 mg at 02.00, Day 1, mean, serum 08.30
[12] = Dose 1 mg at 02.00, Day 2, mean, serum 08.30
[13] = Dose 1 mg at 02.00, Day 3, mean, serum 08.30
[14] = Dose 5 mg at 02.00, Day 11, mean, serum 08.30
[15] = Dose 5 mg at 02.00, Day 12, mean, serum 08.30
[16] = Dose 5 mg at 02.00, Day 13, mean, serum 08.30

For C[C@]12CCC(=O)C=C1CC[C@@H]1[C@@H]2[C@@H](O)C[C@@]2(C)[C@H]1CC[C@]2(O)C(=O)CO [hydrocortisone], the “Equivalent dose in chronotherapeutic administration, equal to 1 mg prednisolone” value (“Equivalent dose” for short) [1] is given as 4 mg and the “Dose equal to 5 mg prednisolone (Normal dosing)” value (from here on “Dose equal to 5 mg prednisolone”) [2] is given as 20 mg.
In the case of C[C@]12C=CC(=O)C=C1CC[C@@H]1[C@@H]2[C@@H](O)C[C@@]2(C)[C@H]1CC[C@]2(O)C(=O)CO [prednisolone], the EMS [3, 10] is reported as “statistically significantly reduced”, the Pain [3, 10] is reported as “statistically significantly reduced” and the “clinician's opinion” value [3, 10] is reported as “statistically significantly reduced”. The “patient's opinion” value [3, 10] was “statistically significantly reduced”, the “Overall results compared with Arvidson et al.” value ([3]; 5 mg prednisolone at 02.00) was “well within the range of findings published by Arvidson et al” and the “More or Less (arthritis worse: -1 morning, 0 equal, +1 afternoon)” value (from here on “More or Less”) ([3]; Dose 1 mg at 02.00, Day 1) was −0.7. For the same compound, the “Pain (VAS)” value ([3]; Dose 1 mg at 02.00, Day 1) was 26.0 mm, the “Painful Joints (tender joint count, n=28)” value (“Painful Joints” for short) ([3]; Dose 1 mg at 02.00, Day 1) was 20.0 and the “Swollen Joints (swollen joint count, n=28)” value (“Swollen Joints” for short) ([3]; Dose 1 mg at 02.00, Day 1) was 18.7. The “Cln Opn (clinician opinion of condition, VAS)” value (“Cln Opn” below) ([3]; Dose 1 mg at 02.00, Day 1) was 28.7 mm, the “EMS (morning stiffness)” value ([3]; Dose 1 mg at 02.00, Day 1) was 55.0 min and the “Pt Opn (patient opinion of condition, VAS)” value (from here on “Pt Opn”) ([3]; Dose 1 mg at 02.00, Day 1) was 23.7 mm. The “More or Less” value ([3]; Dose 1 mg at 02.00, Day 2) was −0.7, the “Pain (VAS)” value ([3]; Dose 1 mg at 02.00, Day 2) was 20.3 mm and the “Painful Joints” value ([3]; Dose 1 mg at 02.00, Day 2) was 20.3. For the same compound, the “Swollen Joints” value ([3]; Dose 1 mg at 02.00, Day 2) was 18.7, the “Cln Opn” value ([3]; Dose 1 mg at 02.00, Day 2) was 29.3 mm and the “EMS (morning stiffness)” value ([3]; Dose 1 mg at 02.00, Day 2) was 51.7 min. The “Pt Opn” value ([3]; Dose 1 mg at 02.00, Day 2) was 26.7 mm, the “More or Less” value ([3]; Dose 1 mg at 02.00, Day 3) was 0.0 and the “Pain (VAS)” value ([3]; Dose 1 mg at 02.00, Day 3) was 16.7 mm. For the same compound, the “Painful Joints” value ([3]; Dose 1 mg at 02.00, Day 3) was 20.3, the “Swollen Joints” value ([3]; Dose 1 mg at 02.00, Day 3) was 18.3 and the “Cln Opn” value ([3]; Dose 1 mg at 02.00, Day 3) was 16.3 mm. For the same compound, the “EMS (morning stiffness)” value ([3]; Dose 1 mg at 02.00, Day 3) was 40.0 min, the “Pt Opn” value ([3]; Dose 1 mg at 02.00, Day 3) was 12.7 mm and the “More or Less” value ([3]; Dose 5 mg at 02.00, Day 11) was −0.3. For the same compound, the “Pain (VAS)” value ([3]; Dose 5 mg at 02.00, Day 11) was 19.7 mm, the “Painful Joints” value ([3]; Dose 5 mg at 02.00, Day 11) was 19.0 and the “Swollen Joints” value ([3]; Dose 5 mg at 02.00, Day 11) was 18.0. For the same compound, the “Cln Opn” value ([3]; Dose 5 mg at 02.00, Day 11) was 27.7 mm, the “EMS (morning stiffness)” value ([3]; Dose 5 mg at 02.00, Day 11) was 30.0 min and the “Pt Opn” value ([3]; Dose 5 mg at 02.00, Day 11) was 19.3 mm. For the same compound, the “More or Less” value ([3]; Dose 5 mg at 02.00, Day 12) was −0.3, the “Pain (VAS)” value ([3]; Dose 5 mg at 02.00, Day 12) was 15.7 mm and the “Painful Joints” value ([3]; Dose 5 mg at 02.00, Day 12) was 19.7. The “Swollen Joints” value ([3]; Dose 5 mg at 02.00, Day 12) was 17.3, the “Cln Opn” value ([3]; Dose 5 mg at 02.00, Day 12) was 15.7 mm and the “EMS (morning stiffness)” value ([3]; Dose 5 mg at 02.00, Day 12) was 20.0 min. The “Pt Opn” value ([3]; Dose 5 mg at 02.00, Day 12) was 11.7 mm, the “More or Less” value ([3]; Dose 5 mg at 02.00, Day 13) was −0.7 and the “Pain (VAS)” value ([3]; Dose 5 mg at 02.00, Day 13) was 16.0 mm. The “Painful Joints” value ([3]; Dose 5 mg at 02.00, Day 13) was 19.7, the “Swollen Joints” value ([3]; Dose 5 mg at 02.00, Day 13) was 14.0 and the “Cln Opn” value ([3]; Dose 5 mg at 02.00, Day 13) was 11.7 mm. The “EMS (morning stiffness)” value ([3]; Dose 5 mg at 02.00, Day 13) was 33.3 min, the “Pt Opn” value ([3]; Dose 5 mg at 02.00, Day 13) was 13.3 mm and the CRP ([4]; 1 mg prednisolone) was “tendency for reduction”. The CRP ([4]; 5 mg prednisolone) was “reduced significantly”, the CRP [4, 11] was 35.5 and the CRP [4, 12] was 31.2. The CRP [4, 13] was 25.8, the CRP [4, 14] was 36.6 and the CRP [4, 15] was 31.1. The CRP [4, 16] was 19.1, the IL-6 ([5]; 1 mg prednisolone) was “tendency for reduction” and the IL-6 ([5]; 5 mg prednisolone) was “reduced significantly”. It also gave an IL-6 [5, 11] of 28.1, an IL-6 [5, 12] of 31.1 and an IL-6 [5, 13] of 22.8. For the same compound, the IL-6 [5, 14] was 30.3, the IL-6 [5, 15] was 18.5 and the IL-6 [5, 16] was 13.8. For the same compound, the HA ([6]; Dose 1 mg at 02.00, Day 1) was 241.9, the HA ([6]; Dose 1 mg at 02.00, Day 2) was 320.3 and the HA ([6]; Dose 1 mg at 02.00, Day 3) was 372.5. It also gave an HA ([6]; Dose 5 mg at 02.00, Day 11) of 322.5, an HA ([6]; Dose 5 mg at 02.00, Day 12) of 339.5 and an HA ([6]; Dose 5 mg at 02.00, Day 13) of 193.9. For the same compound, the “time to Cmax or Tmax” value [7] was 1 to 3 h and the “Efficacy in rheumatoid arthritis” value [8] was “effective”.
For methyl prednisone, the “Equivalent dose” value [1] is listed as 0.8 mg and the “Dose equal to 5 mg prednisolone” value [2] is listed as 4 mg.
In the case of CC(=O)OCC(=O)[C@@]12N=C(C)O[C@@H]1C[C@H]1[C@@H]3CCC4=CC(=O)C=C[C@]4(C)[C@H]3[C@@H](O)C[C@@]12C [deflazacort], the “Equivalent dose” value [1] is listed as 1.2 mg and the “Dose equal to 5 mg prednisolone” value [2] is listed as 6 mg.
In the case of C[C@]12C=CC(=O)C=C1CC[C@H]1[C@@H]3C[C@@H](O)[C@](O)(C(=O)CO)[C@@]3(C)C[C@H](O)[C@@]12F [triamcinolone], the “Equivalent dose” value [1] is listed as 0.8 mg, the “Dose equal to 5 mg prednisolone” value [2] is listed as 4 mg and the “Broadly similar dose in nasal administration” value [9] is listed as 110 µg.
In the case of CC(=O)OCC(=O)[C@@]1(O)CC[C@H]2[C@@H]3CCC4=CC(=O)CC[C@]4(C)[C@H]3C(=O)C[C@@]21C [cortisone acetate], the “Equivalent dose” value [1] is listed as 5 mg and the “Dose equal to 5 mg prednisolone” value [2] is listed as 25 mg.
